Laboratory results published in publication PMC3977535, “Design and Synthesis of New Dual Binding Site Cholinesterase Inhibitors: in vitro Inhibition Studies with in silico Docking” (Letters in Drug Design & Discovery, 2014).
Read-outs that look alike come from different tables or passages of the source.

What was measured:
[1] = target: T1, AChE (Homo sapiens, UniProt P22303); assay: biochemical; format: biochemical; details: for inhibition at 500 µM: read-out: AChE Inhibition, Inhibition (%) at 0.5 mM
T1 construct: purchased Sigma Inc
T1 sequence (P22303 32-614): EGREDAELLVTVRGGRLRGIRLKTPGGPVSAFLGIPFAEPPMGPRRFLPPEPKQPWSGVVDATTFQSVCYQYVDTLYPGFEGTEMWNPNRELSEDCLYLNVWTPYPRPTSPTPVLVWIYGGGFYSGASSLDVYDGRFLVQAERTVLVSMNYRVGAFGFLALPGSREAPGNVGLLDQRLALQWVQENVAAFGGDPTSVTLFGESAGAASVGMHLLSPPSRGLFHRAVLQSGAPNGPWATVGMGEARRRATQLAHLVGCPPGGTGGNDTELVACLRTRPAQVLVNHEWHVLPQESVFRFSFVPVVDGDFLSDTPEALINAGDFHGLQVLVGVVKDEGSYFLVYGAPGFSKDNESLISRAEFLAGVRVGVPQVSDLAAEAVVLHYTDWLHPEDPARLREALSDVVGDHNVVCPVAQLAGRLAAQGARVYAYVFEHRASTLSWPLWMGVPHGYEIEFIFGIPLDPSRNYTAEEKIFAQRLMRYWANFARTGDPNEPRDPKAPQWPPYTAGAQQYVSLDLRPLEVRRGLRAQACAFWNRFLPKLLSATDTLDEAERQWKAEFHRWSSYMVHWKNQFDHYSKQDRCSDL
Experimental: (§1) The AChE and BChE inhibition activity was performed according to the method of Ellman with slight modifications. Total volume of the reaction mixture was 100 µL contained 60 µL Na2HPO4 buffer with concentration of 50 mM and pH 7.7. A 10 µL test compound (0.5 mM per well) was added, followed by the addition of 10 µL enzyme (0.005 unit AChE, 0.5 unit BChE per well, Sigma Inc). […] The reaction was initiated by the addition of 10 µL of 0.5 mM per well substrate (acetylthiocholine iodide or butyrylthiocholine bromide), followed by the addition of 10 µL DTNB (0.5 mM per well). […] Synergy HT (BioTek, USA) 96-well plate reader was used in all experiments. All experiments were carried out with their respective controls in triplicate. […] The percent inhibition was calculated by the help of following equation.
(§2) Inhibition%=Control−Test/Control×100

[2] = target: T2, BChE (Homo sapiens, UniProt P06276); assay: BChE inhibition assay (Ellman method with slight modifications); format: biochemical; details: for inhibition at 500 µM: read-out: BChE Inhibition, Inhibition (%) at 0.5 mM
T2 construct: purchased Sigma Inc
T2 sequence (P06276 29-602): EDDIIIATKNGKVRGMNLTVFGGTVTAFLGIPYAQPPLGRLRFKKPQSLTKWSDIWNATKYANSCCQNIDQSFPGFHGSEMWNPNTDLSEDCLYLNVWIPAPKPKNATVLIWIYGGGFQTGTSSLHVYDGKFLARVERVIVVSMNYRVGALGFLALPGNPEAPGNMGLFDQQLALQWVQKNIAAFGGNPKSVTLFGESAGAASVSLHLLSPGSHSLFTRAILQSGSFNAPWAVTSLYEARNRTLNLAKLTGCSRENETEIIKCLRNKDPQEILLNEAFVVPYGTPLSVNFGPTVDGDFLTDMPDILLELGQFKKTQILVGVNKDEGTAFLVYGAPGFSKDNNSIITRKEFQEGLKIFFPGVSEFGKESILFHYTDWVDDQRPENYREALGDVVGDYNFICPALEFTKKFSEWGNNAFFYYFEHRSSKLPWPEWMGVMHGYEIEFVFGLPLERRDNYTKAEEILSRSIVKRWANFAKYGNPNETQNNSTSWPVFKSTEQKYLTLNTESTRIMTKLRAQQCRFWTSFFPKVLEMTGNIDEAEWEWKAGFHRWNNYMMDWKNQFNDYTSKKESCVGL
Experimental: as §1, §2

[3] = 0.5 mM test compound, mean with SEM
[4] = mean with SEM, read-out: AChE Inhibition, IC50
[5] = mean with SEM, read-out: BChE Inhibition, IC50

SMILES | inhibition at 500 µM [1, 3] [%] | IC50 [1, 4] [µM] | inhibition at 500 µM [2, 3] [%] | IC50 [2, 5] [µM] | inhibitory activity against BChE (in words) [2] | inhibitory activity against AChE (in words) [1] | inhibition at 500 µM [1] [%] | inhibition at 500 µM [2] [%] | IC50 [1] [µM] | IC50 [2] [µM]
O=C(Cc1c[nH]c2ccccc12)NNS(=O)(=O)c1ccc(Br)cc1 [Compound 6e, N'-(2-(1H-indol-3-yl)acetyl)-4-bromobenzenesulfonohydrazide] | 90.78 ± 0.32 | 68.52 ± 0.04 | 81.02 ± 0.14 | 73.52 ± 0.04 |  |  |  |  |  | 
O=C(Cc1c[nH]c2ccccc12)NNC(=O)C(F)(F)F [Compound 5b, N'-(2-(1H-indol-3-yl)acetyl)-2,2,2-trifluoroacetohydrazide] | 75.22 ± 0.41 | 152.31 ± 0.07 | 86.64 ± 0.24 | 68.91 ± 0.07 |  |  |  |  |  | 
O=C(Cc1c[nH]c2ccccc12)NN=C(c1ccccc1)c1ccccc1 [Compound 4f] | 89.3 ± 0.91 | 91.21 ± 0.06 | 89.51 ± 0.69 | 59.81 ± 0.06 |  |  |  |  |  | 
Cc1ccc(/C=N/NC(=O)Cc2c[nH]c3ccccc23)cc1 [Compound 4d] | 79.54 ± 0.54 | 98.81 ± 0.14 | 43.6 ± 0.55 |  | weak |  |  |  |  | 
O=C(Cc1c[nH]c2ccccc12)N/N=C/c1ccc(Cl)cc1 [Compound 4g] | 75.79 ± 0.25 | 106.51 ± 0.07 | 30.1 ± 0.58 |  |  |  |  |  |  | 
Cc1ccc(S(=O)(=O)NNC(=O)Cc2c[nH]c3ccccc23)cc1 [Compound 6a, N'-(2-(1H-Indol-3-yl)acetyl)-4-methylbenzenesulfonohydrazide] | 78.11 ± 0.36 | 121.4 ± 0.16 | 72.52 ± 0.33 | 101.2 ± 0.16 |  |  |  |  |  | 
O=C(Cc1c[nH]c2ccccc12)NNC(=O)Oc1ccccc1 [Compound 5c, Phenyl 2-(2-(1H-indol-3-yl)acetyl)hydrazinecarboxylate] |  |  |  |  | weak | weak | 55.91 ± 0.33 | 39.29 ± 0.25 |  | 
NNC(=O)Cc1c[nH]c2ccccc12 [Compound 3] |  |  |  |  |  |  | 69.16 ± 0.25 | 73.95 ± 0.67 | 152.11 ± 0.07 | 139.21 ± 0.07
O=C(Cc1c[nH]c2ccccc12)N/N=C/c1ccccc1O [Compound 4b] | 75.5 ± 0.33 | 103.11 ± 0.05 | 43.16 ± 0.18 |  | weak |  |  |  |  | 
COC(=O)Cc1c[nH]c2ccccc12 [Compound 2] | 70.61 ± 0.34 | 138.5 ± 0.21 | 59.82 ± 0.15 | 184.2 ± 0.21 |  |  |  |  |  | 
O=C(Cc1c[nH]c2ccccc12)N/N=C/c1ccccc1 [Compound 4a] | 63.11 ± 0.52 | 198.61 ± 0.14 | 79.58 ± 0.42 | 86.31 ± 0.14 |  |  |  |  |  | 
CC(=O)NNC(=O)Cc1c[nH]c2ccccc12 [Compound 5a, N'-acetyl-2-(1H-indol-3-yl)acetohydrazide] | 60.52 ± 0.25 | 298.61 ± 0.15 | 90.81 ± 0.69 | 55.21 ± 0.12 |  |  |  |  |  | 
O=C(Cc1c[nH]c2ccccc12)NNS(=O)(=O)c1ccc([N+](=O)[O-])cc1 [Compound 6d, N'-(2-(1H-Indol-3-yl)acetyl)-4-nitrobenzenesulfonohydrazide] | 58.62 ± 0.52 |  | 63.69 ± 0.61 | < 400 |  | weak |  |  |  | 
C/C(=N\NC(=O)Cc1c[nH]c2ccccc12)c1ccccc1 [Compound 4e] | 66.86 ± 0.36 | 174.51 ± 0.11 | 68.43 ± 0.18 | 146.21 ± 0.08 |  |  |  |  |  | 
O=C(Cc1c[nH]c2ccccc12)NNS(=O)(=O)c1ccccc1[N+](=O)[O-] [Compound 6b, N'-(2-(1H-Indol-3-yl)acetyl)-2-nitrobenzenesulfonohydrazide] | 46.41 ± 0.21 |  | 42.61 ± 0.42 |  | weak | weak |  |  |  | 
COc1ccc(/C=N/NC(=O)Cc2c[nH]c3ccccc23)cc1 [Compound 4c] | 75.5 ± 0.56 | 109.6 ± 0.11 | 50.2 ± 0.69 |  |  |  |  |  |  | 
O=C(Cc1c[nH]c2ccccc12)NNS(=O)(=O)c1cccc([N+](=O)[O-])c1 [Compound 6c, N'-(2-(1H-Indol-3-yl)acetyl)-3-nitrobenzenesulfonohydrazide] | 56.21 ± 0.25 |  | 81.24 ± 0.52 | 78.51 ± 0.21 |  | weak |  |  |  | 
